For one experiment, the target named is IRAK4 (Homo sapiens (Human), UniProt Q9NWZ3). Briefly: IRAK4 Inhibition Assay. The format is biochemical. The note with it: ATP 500 μM; IRAK4 0.6 nM; 60 min room temperature. Here is the method:
IRAK4 Inhibition Assay The assays were performed in U-bottom 384-well plates. […] The reaction was initiated by the combination of IRAK4 with substrates and test compounds. The reaction mixture was incubated at room temperature for 60 min. and terminated by adding 45 μL of 35 mM EDTA to each sample. The reaction mixture was analyzed on the Caliper LABCHIP® 3000 (Caliper, Hopkinton, MA) by electrophoretic separation of the fluorescent substrate and phosphorylated product. Inhibition data were calculated by comparison to no enzyme control reactions for 100% inhibition and vehicle-only reactions for 0% inhibition.

Another experiment has as its target JAK3 kinase (Homo sapiens (Human), UniProt P52333). Briefly: JAK3 Homogeneous Time Resolved Fluorescence (HTRF) Assay. The format is binding. To be noted: for IC50: competition binding with fluorescein-labeled ATP competitive probe; for Ratio of JAK3 IC50 to IRAK4 IC50: selectivity for IRAK4 over JAK3. Here is the method:
JAK3 Homogeneous Time Resolved Fluorescence (HTRF) Assay
A time resolved FRET-based competition binding assay was used to assess test article binding to JAK3 kinase. His-tagged or GST-tagged kinase at a concentration of 1 nM was incubated with 0.2 nM Tb-labeled detection antibody (anti-His or anti-GST), test compound, and fluorescein-labeled ATP competitive probe at a concentration corresponding to the probe's equilibrium dissociation constant for one hour. Fluorescence at 495 nm and 520 nm was measured using an EnVision microplate reader to quantify FRET between Tb-labeled detection antibody and fluorescein-labeled probe. Background subtracted FRET ratios were normalized to the maximum signal obtained in the absence of test compound. These values were converted to a percent inhibition. Percent inhibition was determined for test compounds at 11 concentrations. The IC50, defined as the concentration of the competing test compound needed to reduce specific binding of the probe by 50%, was calculated using the 4 parameter logistic equation to fit the data.
(Time-resolved FRET reads energy transfer from a long-lived donor to a nearby acceptor.)

As usually defined, the IC50 is the concentration that gives 50% inhibition.

Where only a bound is given, the exact number is not on record here.

JAK3 kinase, sequence (P52333 whole entry): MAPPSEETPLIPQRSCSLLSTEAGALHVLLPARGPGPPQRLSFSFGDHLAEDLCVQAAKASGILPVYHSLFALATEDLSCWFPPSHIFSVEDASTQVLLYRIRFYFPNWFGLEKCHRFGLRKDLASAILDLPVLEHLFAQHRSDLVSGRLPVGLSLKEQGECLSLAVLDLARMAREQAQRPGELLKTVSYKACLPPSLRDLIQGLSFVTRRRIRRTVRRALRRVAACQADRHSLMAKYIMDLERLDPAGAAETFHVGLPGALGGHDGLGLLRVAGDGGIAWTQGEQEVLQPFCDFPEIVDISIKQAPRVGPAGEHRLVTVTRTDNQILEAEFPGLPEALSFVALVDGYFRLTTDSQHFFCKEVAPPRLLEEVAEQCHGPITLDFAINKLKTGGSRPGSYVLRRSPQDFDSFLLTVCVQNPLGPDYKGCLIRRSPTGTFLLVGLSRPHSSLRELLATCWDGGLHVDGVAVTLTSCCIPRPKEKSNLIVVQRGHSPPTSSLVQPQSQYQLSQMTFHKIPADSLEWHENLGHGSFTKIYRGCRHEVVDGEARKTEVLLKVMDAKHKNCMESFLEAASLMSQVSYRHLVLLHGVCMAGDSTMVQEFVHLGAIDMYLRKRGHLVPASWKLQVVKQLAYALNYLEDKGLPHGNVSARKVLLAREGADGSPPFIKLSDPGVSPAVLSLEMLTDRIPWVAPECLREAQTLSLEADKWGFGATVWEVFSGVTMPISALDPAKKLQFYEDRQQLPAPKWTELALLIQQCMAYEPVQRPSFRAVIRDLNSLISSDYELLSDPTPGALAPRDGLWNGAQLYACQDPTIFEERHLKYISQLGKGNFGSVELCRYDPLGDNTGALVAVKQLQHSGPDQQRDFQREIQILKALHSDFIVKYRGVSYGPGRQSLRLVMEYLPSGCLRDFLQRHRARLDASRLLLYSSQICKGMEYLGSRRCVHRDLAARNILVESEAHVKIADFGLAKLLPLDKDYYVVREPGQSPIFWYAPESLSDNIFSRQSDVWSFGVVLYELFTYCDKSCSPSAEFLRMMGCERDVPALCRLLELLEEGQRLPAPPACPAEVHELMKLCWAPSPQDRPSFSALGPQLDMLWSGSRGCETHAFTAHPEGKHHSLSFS
IRAK4, sequence (Q9NWZ3 whole entry, species assumed): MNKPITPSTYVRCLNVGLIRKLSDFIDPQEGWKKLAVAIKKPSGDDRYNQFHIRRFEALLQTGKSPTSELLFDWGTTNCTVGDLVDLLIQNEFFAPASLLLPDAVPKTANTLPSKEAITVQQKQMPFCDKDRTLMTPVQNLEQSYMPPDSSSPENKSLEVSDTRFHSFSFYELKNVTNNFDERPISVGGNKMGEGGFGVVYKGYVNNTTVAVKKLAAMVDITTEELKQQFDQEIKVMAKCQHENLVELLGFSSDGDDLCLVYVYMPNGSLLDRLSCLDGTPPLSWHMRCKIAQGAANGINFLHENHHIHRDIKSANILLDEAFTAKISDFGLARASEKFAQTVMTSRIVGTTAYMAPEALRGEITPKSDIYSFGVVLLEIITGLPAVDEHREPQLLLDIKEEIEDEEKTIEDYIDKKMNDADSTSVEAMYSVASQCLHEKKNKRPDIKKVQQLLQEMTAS

With `CC(C)(O)[C@H](F)CNC(=O)c1cnc2cc(-c3cccnc3)nn2c1NCC(F)F` [Example 129, (R)-7-((2,2-difluoroethyl)amino)-N-(2-fluoro-3-hydroxy-3-methylbutyl)-2-(pyridin-3-yl) pyrazolo[1,5-a]pyrimidine-6-carboxamide], the 50% inhibitory concentration (IC50) on IRAK4 was 0.3 µM. Also, on JAK3 kinase, the half-maximal inhibitory concentration (IC50) is over 10 µM and the “Ratio of JAK3 IC50 to IRAK4 IC50” value is on record as over 33.

Regarding `COc1ccc(-c2cc3c(NC4CCOCC4)c(C(=O)NC[C@@H](F)C(C)(C)O)cnn3c2)cn1` [Example 10, (R)—N-(2-fluoro-3-hydroxy-3-methylbutyl)-6-(6-methoxypyridin-3-yl)-4-((tetrahydro-2H-pyran-4-yl)amino)pyrrolo[1,2-b]pyridazine-3-carboxamide], the IC50 at IRAK4 came out at 0.057 µM. Further, at JAK3 kinase, the concentration for half-maximal inhibition (IC50) is over 10 µM and the “Ratio of JAK3 IC50 to IRAK4 IC50” value is reported as over 175.

Regarding `CC(C)Nc1c(C(=O)NC[C@@H](F)C(C)(C)O)cnc2cc(-c3ncco3)nn12` [Example 134, (R)—N-(2-fluoro-3-hydroxy-3-methylbutyl)-7-(isopropylamino)-2-(oxazol-2-yl)pyrazolo[1,5-a]pyrimidine-6-carboxamide], the IC50 at IRAK4 was 0.22 µM; on JAK3 kinase it was over 50 µM. Also, the “Ratio of JAK3 IC50 to IRAK4 IC50” value on JAK3 kinase is given as over 227.

For `CC(C)Nc1c(C(=O)NCCC(C)(C)O)cnn2cc(-c3ccncc3)nc12` [Example 105, N-(3-hydroxy-3-methylbutyl)-8-(isopropylamino)-2-(pyridin-4-yl)imidazo[1,2-b]pyridazine-7-carboxamide], the IC50 on IRAK4 was 0.062 µM. In addition, on JAK3 kinase, the half-inhibitory concentration (IC50) is over 50 µM and the “Ratio of JAK3 IC50 to IRAK4 IC50” value is over 806.

In the case of `Cc1cc(F)ncc1-c1cc2c(NC(C)C)c(C(=O)N[C@H]3CC[C@H](C(=O)N4CCOCC4)CC3)cnn2c1` [Example 83, 6-(6-fluoro-4-methylpyridin-3-yl)-4-(isopropylamino)-N-((1r,4r)-4-(morpholine-4-carbonyl)cyclohexyl)pyrrolo[1,2-b]pyridazine-3-carboxamide], the 50% inhibitory concentration (IC50) on IRAK4 is 0.023 µM. Moreover, at JAK3 kinase, the 50% inhibitory concentration (IC50) was about 49 µM and the “Ratio of JAK3 IC50 to IRAK4 IC50” value was about 2130.

`CC(C)Nc1c(C(=O)N[C@H]2C[C@H](C(C)(C)O)C2)cnn2cc(-c3ccc(F)nc3)nc12` [Example 114, 2-(6-fluoropyridin-3-yl)-N-((1r,3r)-3-(2-hydroxypropan-2-yl)cyclobutyl)-8-(isopropylamino)imidazo[1,2-b]pyridazine-7-carboxamide]: the IC50 on IRAK4 is 0.84 µM; at JAK3 kinase, over 50 µM. At JAK3 kinase, the “Ratio of JAK3 IC50 to IRAK4 IC50” value is reported as over 60.

As for `CC(C)Nc1c(C(=O)NC[C@@H](F)C(C)(C)O)cnn2cc(Nc3cc(C#N)ccn3)cc12` [Example 41, (R)-6-((4-cyanopyridin-2-yl)amino)-N-(2-fluoro-3-hydroxy-3-methylbutyl)-4-(isopropylamino)pyrrolo[1,2-b]pyridazine-3-carboxamide], the IC50 on IRAK4 was 0.62 µM; at JAK3 kinase, over 50 µM. For the same compound, the “Ratio of JAK3 IC50 to IRAK4 IC50” value at JAK3 kinase is on record as over 81.

In the case of `CC(C)Nc1c(C(=O)NC[C@@H](F)C(C)(C)O)cnn2cc(-c3cccnc3F)nc12` [Example 103, (R)—N-(2-fluoro-3-hydroxy-3-methylbutyl)-2-(2-fluoropyridin-3-yl)-8-(isopropylamino)imidazo[1,2-b]pyridazine-7-carboxamide], the results for the half-maximal inhibitory concentration (IC50) at IRAK4 and at JAK3 kinase were 0.045 µM and over 50 µM, respectively. Moreover, at JAK3 kinase, the “Ratio of JAK3 IC50 to IRAK4 IC50” value is listed as over 1111.

With `COc1cc(-c2cc3ncc(C(=O)NC[C@@H](F)C(C)(C)O)c(NC(C)C)n3n2)ccn1` [Example 148, (R)—N-(2-fluoro-3-hydroxy-3-methylbutyl)-7-(isopropylamino)-2-(2-methoxypyridin-4-yl)pyrazolo[1,5-a]pyrimidine-6-carboxamide], the IC50 on IRAK4 was 0.061 µM; on JAK3 kinase it was over 10 µM. Also, the “Ratio of JAK3 IC50 to IRAK4 IC50” value on JAK3 kinase is over 164.

With `CC(C)(O)[C@H](F)CNC(=O)c1cnn2cc(-c3ccncc3)cc2c1NC1CCOCC1` [Example 9, (R)—N-(2-fluoro-3-hydroxy-3-methylbutyl)-6-(pyridin-4-yl)-4-((tetrahydro-2H-pyran-4-yl)amino) pyrrolo[1,2-b] pyridazine-3-carboxamide], on IRAK4, the half-maximal inhibitory concentration (IC50) was 0.017 µM. On JAK3 kinase, the IC50 was over 50 µM and the “Ratio of JAK3 IC50 to IRAK4 IC50” value was over 2941.

For the compound `CC(C)Nc1c(C(=O)NC[C@@H](F)C(C)(C)O)cnc2cc(-c3ccccc3)nn12` [Example 128, (R)—N-(2-fluoro-3-hydroxy-3-methylbutyl)-7-(isopropylamino)-2-phenylpyrazolo[1,5-a]pyrimidine-6-carboxamide], the IC50 at IRAK4 came to 0.057 µM. On JAK3 kinase, the IC50 is over 10 µM and the “Ratio of JAK3 IC50 to IRAK4 IC50” value is recorded as over 175.

On to `CC(C)Nc1c(C(=O)NC[C@@H](F)C(C)(C)O)cnc2cc(-n3ccccc3=O)nn12` [Example 151, (R)—N-(2-fluoro-3-hydroxy-3-methylbutyl)-7-(isopropylamino)-2-(2-oxopyridin-1(2H)-yl)pyrazolo[1,5-a]pyrimidine-6-carboxamide], for which, at IRAK4, the IC50 was determined as 0.58 µM. Further, on JAK3 kinase, the IC50 is over 50 µM and the “Ratio of JAK3 IC50 to IRAK4 IC50” value is on record as over 86.

Take `CC(C)(O)[C@H](F)CNC(=O)c1cnc2cc(-c3cccnc3)nn2c1N[C@H]1CC[C@H](C(C)(C)O)CC1` [Example 159, N—((R)-2-fluoro-3-hydroxy-3-methylbutyl)-7-(((1r,4R)-4-(2-hydroxypropan-2-yl)cyclohexyl)amino)-2-(pyridin-3-yl)pyrazolo[1,5-a]pyrimidine-6-carboxamide]: at IRAK4, the half-inhibitory concentration (IC50) is 0.053 µM. Further, on JAK3 kinase, the IC50 is over 50 µM and the “Ratio of JAK3 IC50 to IRAK4 IC50” value was over 943.

For `COc1ncccc1-c1cc2ncc(C(=O)NC[C@@H](F)C(C)(C)O)c(NC(C)C)n2n1` [Example 143, (R)—N-(2-fluoro-3-hydroxy-3-methylbutyl)-7-(isopropylamino)-2-(2-methoxypyridin-3-yl)pyrazolo[1,5-a]pyrimidine-6-carboxamide], the IC50 at IRAK4 came to 0.63 µM. Moreover, on JAK3 kinase, the IC50 is over 10 µM and the “Ratio of JAK3 IC50 to IRAK4 IC50” value is recorded as over 16.

Take `CC(C)(O)CCNc1c(C(=O)NC[C@@H](F)C(C)(C)O)cnn2cc(-c3cccc(F)c3)cc12` [Example 26, (R)—N-(2-fluoro-3-hydroxy-3-methylbutyl)-6-(3-fluorophenyl)-4-((3-hydroxy-3-methylbutyl)amino)pyrrolo[1,2-b] pyridazine-3-carboxamide]: the half-maximal inhibitory concentration (IC50) at IRAK4 came to 0.37 µM. Further, on JAK3 kinase, the IC50 was over 50 µM and the “Ratio of JAK3 IC50 to IRAK4 IC50” value was over 135.

As for `CC(C)Nc1c(C(=O)NC[C@@H](F)C(C)(C)O)cnn2cc(-n3ncc4cncnc43)cc12` [Example 37, (R)—N-(2-fluoro-3-hydroxy-3-methylbutyl)-4-(isopropylamino)-6-(1H-pyrazolo[3,4-d]pyrimidin-1-yl)pyrrolo[1,2-b]pyridazine-3-carboxamide], the 50% inhibitory concentration (IC50) on IRAK4 stood at 0.0038 µM. At JAK3 kinase, the IC50 was over 50 µM and the “Ratio of JAK3 IC50 to IRAK4 IC50” value is recorded as over 13158.

For the compound `CC(C)(O)[C@H](F)CNC(=O)c1cnn2cc(-c3cccnc3)cc2c1NC1CC1` [Example 32, (R)-4-(cyclopropylamino)-N-(2-fluoro-3-hydroxy-3-methylbutyl)-6-(pyridin-3-yl)pyrrolo[1,2-b]pyridazine-3-carboxamide], on IRAK4, the IC50 is 0.011 µM. On JAK3 kinase, the IC50 is over 50 µM and the “Ratio of JAK3 IC50 to IRAK4 IC50” value is over 4545.

For `CC(C)Nc1c(C(=O)NCCN2CCOCC2)cnn2cc(-c3cn[nH]c3)nc12` [Example 110, 8-(isopropylamino)-N-(2-morpholinoethyl)-2-(1H-pyrazol-4-yl) imidazo[1,2-b]pyridazine-7-carboxamide], the IC50 at IRAK4 came to 0.15 µM. Further, on JAK3 kinase, the half-inhibitory concentration (IC50) was over 50 µM and the “Ratio of JAK3 IC50 to IRAK4 IC50” value is on record as over 333.

Take `CC(C)(O)[C@H](F)CNC(=O)c1cnc2cc(-c3ccncc3F)nn2c1NCCC1CCCCO1` (stereo partly drawn) [Example 160, N—((R)-2-fluoro-3-hydroxy-3-methylbutyl)-2-(3-fluoropyridin-4-yl)-7-((2-(tetrahydro-2H-pyran-2-yl)ethyl)amino)pyrazolo[1,5-a]pyrimidine-6-carboxamide]: at IRAK4, the IC50 amounted to 0.045 µM. At JAK3 kinase, the IC50 was over 50 µM and the “Ratio of JAK3 IC50 to IRAK4 IC50” value is recorded as over 1111.

As for `Nc1c(C(=O)NCCN2CCOCC2)cnn2cc(-c3ccncc3F)cc12` [Example 79, 4-amino-6-(3-fluoropyridin-4-yl)-N-(2-morpholinoethyl)pyrrolo[1,2-b]pyridazine-3-carboxamide], on IRAK4, the half-inhibitory concentration (IC50) is 0.11 µM. In addition, at JAK3 kinase, the half-maximal inhibitory concentration (IC50) was over 50 µM and the “Ratio of JAK3 IC50 to IRAK4 IC50” value is given as over 455.

Turning to `CC(C)Nc1c(C(=O)NC[C@@H](F)C(C)(C)O)cnn2cc(-c3ccnc(N4CCOCC4)c3F)cc12` [Example 53, (R)-6-(3-fluoro-2-morpholinopyridin-4-yl)-N-(2-fluoro-3-hydroxy-3-methylbutyl)-4-(isopropylamino)pyrrolo[1,2-b]pyridazine-3-carboxamide], on IRAK4, the IC50 came to 0.1 µM. For the same compound, at JAK3 kinase, the IC50 was about 50 µM and the “Ratio of JAK3 IC50 to IRAK4 IC50” value was about 500.
